Where “and” joins values, the source holds several entries; their conditions need not be identical. Equal entries are not always repeated.
How the values were obtained:
Conditions in all cases: incubation time: 72 h
HCC1143 = test: drug sensitivity score (DSS), CellTiter-Blue viability (DSS (AUC-based score)); higher = stronger viability inhibition; extreme values may be limits of the assay
Method: (§1)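 DSRT with the CellTiter-Blue (resazurin reduction) viability readout, fluorescence 560/590 nm, 72 h incubation. Plates were normalised to DMSO and benzethonium chloride controls. DSS is computed from the area under the fitted dose-response curve (5 or 9 concentrations).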

SK-BR-3 = test: as above
Method: as §1

BT-474 = test: as above
Method: as §1

MFM-223 [1] = test: as above
Method: as §1

CAL-85-1 = test: as above
Method: as §1

HDQ-P1 = test: as above
Method: as §1

HCC1599 = test: as above
Method: as §1

MDA-MB-468 = test: as above
Method: as §1

DU-4475 [2] = test: as above
Method: as §1

MDA-MB-231 = test: as above
Method: as §1

Hs578T [3] = test: as above
Method: as §1

MDA-MB-453 [4] = test: as above
Method: as §1

HCC1937 = test: as above
Method: as §1

CAL-148 [5] = test: as above
Method: as §1

MDA-MB-436 [6] = test: as above
Method: as §1

CAL-120 [7] = test: as above
Method: as §1

CAL-51 = test: as above
Method: as §1

BT-549 = test: as above
Method: as §1

MFM-223 [8] = test: normalised viability (% of control), CellTiter-Blue; higher = more viable cells (about 100 = DMSO control)
Summary of the method: (§2)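 Each entry is normalised viability at a single listed concentration within a series. It comes from breast cancer cell lines incubated 72 h with compound in 384-well plates, then measured with CellTiter-Blue fluorescence at 560/590 nm. Every plate was normalised between vehicle (100) and a positive kill control (0).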

DU-4475 [9] = test: as above
Summary of the method: as §2

Hs578T [10] = test: as above
Summary of the method: as §2

MDA-MB-453 [11] = test: as above
Summary of the method: as §2

CAL-148 [12] = test: as above
Summary of the method: as §2

MDA-MB-436 [13] = test: as above
Summary of the method: as §2

CAL-120 [14] = test: as above
Summary of the method: as §2

Cc1ccc(-c2cc(C(F)(F)F)nn2-c2ccc(S(N)(=O)=O)cc2)cc1 [Celecoxib]
Conditions	drug sensitivity score
BT-474	0
BT-549	0
CAL-51	0
CAL-85-1	0
CAL-120 [7]	0
CAL-148 [5]	0
DU-4475 [2]	0
HCC1143	0
HCC1599	0
HCC1937	2.89
HDQ-P1	4.34
Hs578T [3]	0
MDA-MB-231	0
MDA-MB-436 [6]	3.91
MDA-MB-453 [4]	1.65
MDA-MB-468	0
MFM-223 [1]	0
SK-BR-3	0

normalised viability [%]
Conditions	CAL-120 [14]	CAL-148 [12]	DU-4475 [9]	Hs578T [10]	MDA-MB-436 [13]	MDA-MB-453 [11]	MFM-223 [8]
3 nM	–	86.8	83.8	–	–	111	–
10 nM	94.5	–	–	113	99.3	–	95.9
30 nM	–	97	93.1	–	–	97.5	–
100 nM	–	91.2	106	–	–	103	–
1000 nM	79.7	–	–	108	77.8	–	92.1
10000 nM	81.9	–	–	92.6	80.1	–	86.3

CCCS(=O)(=O)Nc1ccc(F)c(C(=O)c2c[nH]c3ncc(-c4ccc(Cl)cc4)cc23)c1F [Vemurafenib]
Conditions	drug sensitivity score
BT-474	0
BT-549	0
CAL-51	0
CAL-85-1	2.25
CAL-120 [7]	0
CAL-148 [5]	0
DU-4475 [2]	17.3
HCC1143	0
HCC1599	0
HCC1937	0.544
HDQ-P1	1.56
Hs578T [3]	1.04
MDA-MB-231	0
MDA-MB-436 [6]	0
MDA-MB-453 [4]	0
MDA-MB-468	0
MFM-223 [1]	0
SK-BR-3	0

normalised viability [%]
Conditions	CAL-120 [14]	CAL-148 [12]	DU-4475 [9]	Hs578T [10]	MDA-MB-436 [13]	MDA-MB-453 [11]	MFM-223 [8]
3 nM	–	95.2	94.5	–	–	96.5	–
10 nM	92.6	–	–	112	104	–	87.9
30 nM	–	97.3	85.1	–	–	93.1	–
100 nM	–	98.3	68.2	–	–	80.1	–
1000 nM	91.8	–	–	129	97.3	–	95.4
10000 nM	71.7	–	–	45.9	78.1	–	85.6

CCN(CC)CCCC(C)Nc1c2ccc(Cl)cc2nc2ccc(OC)cc12 (stereo unspecified) [Mepacrine]
Conditions	drug sensitivity score
BT-474	4.38 and 1.69
BT-549	2.79 and 5
CAL-51	3.49 and 2.1
CAL-85-1	4.8 and 2.06
CAL-120 [7]	6.95 and 4.06
CAL-148 [5]	5.43 and 4.13
DU-4475 [2]	4.6 and 3.08
HCC1143	3.86 and 1.45
HCC1599	5.6 and 4.64
HCC1937	9 and 9.95
HDQ-P1	6.58 and 6.72
Hs578T [3]	2.46 and 1.85
MDA-MB-231	8.94 and 9.12
MDA-MB-436 [6]	6.69 and 2.28
MDA-MB-453 [4]	6.26 and 3.66
MFM-223 [1]	2.66 and 2.79
SK-BR-3	5.2 and 2.74

normalised viability [%]
Conditions	CAL-120 [14]	CAL-148 [12]	DU-4475 [9]	Hs578T [10]	MDA-MB-436 [13]	MDA-MB-453 [11]	MFM-223 [8]
0.297 nM	–	118	112	–	–	106	–
0.99 nM	114	–	–	111	109	–	107
2.97 nM	–	110	88	–	–	107	–
3 nM	–	98.7	92.6	–	–	114	–
9.9 nM	–	129	101	–	–	100	–
10 nM	102	–	–	107	101	–	101
30 nM	–	106	89.1	–	–	96.7	–
99 nM	109	–	–	118	105	–	94.8
100 nM	–	102	96.9	–	–	102	–
990 nM	16.3	–	–	38.5	33	–	44.5
1000 nM	89.6	–	–	122	81.4	–	100
10000 nM	5.76	–	–	21.6	9.64	–	20.9

O=C(/C=C/c1cccnc1)NCCCCC1CCN(C(=O)c2ccccc2)CC1 [FK-866]
Conditions	drug sensitivity score
BT-474	9.11
BT-549	23.9
CAL-51	14.5
CAL-85-1	9.18
CAL-120 [7]	19.4
CAL-148 [5]	9.58
DU-4475 [2]	19.8
HCC1143	22.2
HCC1599	18.7
HCC1937	7.6
HDQ-P1	9.7
Hs578T [3]	25.5
MDA-MB-231	15.6
MDA-MB-436 [6]	22.3
MDA-MB-453 [4]	27.2
MDA-MB-468	30.1
MFM-223 [1]	23.9
SK-BR-3	0

normalised viability [%]
Conditions	CAL-120 [14]	CAL-148 [12]	DU-4475 [9]	Hs578T [10]	MDA-MB-436 [13]	MDA-MB-453 [11]	MFM-223 [8]
0.3 nM	–	96.4	104	–	–	111	–
1 nM	107	–	–	99.9	96.2	–	108
3 nM	–	94.5	77.2	–	–	31.7	–
10 nM	–	91.4	86	–	–	22.3	–
100 nM	24.7	–	–	15	23.5	–	21.2
1000 nM	23.3	–	–	15.9	17.7	–	20.1

— the supplement of paper PMC4862054
